One molecule from US20150011588A1, “Novel formulation, omeprazole antacid complex-immediate release for rapid and sustained suppression of gastric acid” (priority 2003, published 2015) can be followed below.

The test system of one data set is gastric acidity. Description: SAN-15-CO1C trial: gastric pH monitoring, omeprazole powder with or without antacid. Type of data set: in vivo, human. The following applies: omeprazole 40 mg, administered 1 hour pre-meal, 10 subjects.
A further data set is described as follows: clinical. The note with it: human, plasma, oral, 40 mg.

From the text for clinical: Pharmacokinetic parameters disclosed herein include: (1) parameters obtained directly from the data without interpolation, including plasma omeprazole concentration, peak omeprazole plasma concentration (Cmax), and time to peak omeprazole plasma concentration (Tmax); (2) terminal elimination rate constant (kel) determined from a log-linear regression analysis of the terminal plasma omeprazole concentrations; (3) terminal elimination half-life (t1/2) calculated as 0.693/kel; (4) area under the omeprazole plasma concentration-time curve from time zero to time “t” (AUCo-t), calculated using the trapezodial rule with the plasma concentration at time “t” being the last measurable concentration; (5) area under the omeprazole plasma concentration-time curve from time zero to time infinity (AUC0-inf), calculated as AUC0-t+Ct/kel, where Ct is the last measurable plasma concentration and kel is the terminal elimination rate constant defined above.
Blood samples (10 mL) were taken within 30 minutes predose and up to 12 hours postdose; eg, postdose at 5, 10, 15, 30, 45, 60, 90, 120, 180, 240, 300, 360 minutes, and up to 12 hours in some studies.
(§1) This trial protocol is designed as a single-dose crossover trial. […] Each dose was followed by a 7-14 day washout. The same treatment was administered to all subjects in each trial period:
For the periods including omeprazole powder plus tablet administration, the subject received omeprazole powder administered directly onto the dorsal mid-tongue Immediately thereafter, subjects were given one chewable antacid tablet, which they began chewing. The subject continued to chew the tablet while mixing it with omeprazole powder, and carefully avoided swallowing the powder immediately. One minute after initiating chewing (and after completely swallowing trial medications), each subject drank 120 mL of water, swishing the oral contents before swallowing.
Pharmacokinetic evaluations include plasma omeprazole and esomeprazole concentration over time; and plasma omeprazole and esomeprazole C., Tmax, kel, T1/2, AUC(0-t), and AUC(0-inf).
Method for gastric acidity: Pharmacodynamic parameters disclosed herein include: (1) mean gastric acid concentration; (2) onset time of gastric pH increase; (3) gastric pH over time; (4) length of time gastric pH is >4; (5) percentage (%) of time gastric pH is time pH>4 (in figures as “% time pH>4”); (6) median gastric pH; and (7) integrated gastric acidity, which is expressed as mM acid×time, (mmol acid×hr/L) is calculated as the cumulative time-weighted average of mean gastric acid concentration, as follows:
as §1
For periods requiring a meal, subjects fasted for at least 10 hours and were allowed water ad libitum until 2 hours prior to administration. Gastric pH monitoring was recorded for up to 11 hours beginning at time zero. The standard breakfast was ingested over 30 minutes beginning 90 minutes after the initiation of pH monitoring.
For periods including dosing after a meal, subjects fasted for at least 10 hours. On Day 0, ninety minutes of probe pH monitoring was started prior to initiating ingestion of the standardized breakfast, which was eaten within 30 minutes. The pH monitoring continued for 9.5 hours after initiating ingestion of breakfast. […]

Usually AUC(0-inf) stands for the area under the concentration-time curve extrapolated to infinity. A low value points to low exposure. By AUC(0-t) is commonly meant exposure summed from dosing to a finite time, without extrapolation to infinity. For orientation: Cmax means the maximum level reached in the sampled fluid or tissue. On to `COc1ccc2[nH]c([S+]([O-])Cc3ncc(C)c(OC)c3C)nc2c1` (stereo not shown) [Omeprazole Powder], for which the “Median Integrated Gastric Acidity 0-210 min. Post-meal” value in the data set on gastric acidity amounted to 35 mmol·h/L. Moreover, in the data set “clinical”, the AUC(0-inf) worked out at 225 ng·h/mL, the AUC(0-t) came out at 225 ng·h/mL and the Cmax turned out to be 186 ng/mL.
